According to patent US20210177828A1, “TAM FAMILY KINASE /AND CSF1R KINASE INHIBITOR AND USE THEREOF” (Nanjing Transthera Biosciences Co., Ltd., priority 2018, published 2021):
Where two headings read alike, the source gives them in different places.

How the values were obtained:
[1] = PK assay in rat (IV and PO); type: in vivo; settings: plasma, SD rats; for bioavailability: read-out: F % (absolute bioavailability); for clearance: read-out: Cl_obs iv (clearance rate) (converted); for Vd: read-out: Vz_obs iv (apparent volume of distribution); for Tmax: read-out: Tmax po (time of maximum observed plasma concentration)
Procedure: The experimental compounds were each dissolved in a mixture of 5% DMSO+20% (30% solutol)+75% saline to prepare compound solutions. The compound solutions were intragastrically administered to SD rats at a dosage of 5.0 mg/kg. The blood was sampled at time points of 15 min, 30 min, 1 hr, 2 hrs, 4 hrs, 6 hrs, 8 hrs and 24 hrs after administration.
The experimental compounds were each dissolved in a mixture of 5% DMSO+20% (30% solutol)+75% saline to prepare compound solutions. The compound solutions were intravenously administered to SD rats at a dosage of 1 mg/kg. The blood was sampled at time points of 5 min, 15 min, 30 min, 1 hr, 2 hrs, 4 hrs, 6 hrs, 8 hrs and 24 hrs after administration.
The animals were fixed, and the tails were heated under a water bath 10 min before each sampling time. About 100 μL of blood was collected via the tail vein, and the collected blood was placed in an anticoagulant tube containing EDTA-K2. The blood samples were centrifuged at 8,000 rpm for 6 min at 4° C. to obtain plasma samples, and the plasma samples were prepared within 30 min after the blood collection. The plasma samples were stored in a refrigerator at −80° C. before test.
The sample to be tested was taken out from the −80° C. refrigerator, naturally thawed at room temperature, and vortexed for 5 min. 20 μL of plasma sample was pipetted to a 1.5 mL centrifuge tube, and 200 μL of internal standard working solution (a solution of tolbutamide in methanol, 100 ng/mL) was added. The resulting mixture was thoroughly mixed, vortexed for 5 min, and centrifuged at 12,000 rpm for 5 min. 50 μL of supernatant was precisely pipetted to a 96-well plate with 150 μL of water per well, and the resulting mixture was vortexed for 5 min and then used for LC-MS/MS analysis.

H1299 cell pAxl = molecular target: T1, H1299 cell pAxl (Homo sapiens, UniProt P30530); experiment: Inhibitory activity on cell pAxl, H1299 cells, hGAS6 stimulation, Western Blot; type: cell-based; settings: hGAS6 200 ng/mL
T1 construct: endogenous in cells; host or cells: H1299
T1 sequence (P30530 26-894): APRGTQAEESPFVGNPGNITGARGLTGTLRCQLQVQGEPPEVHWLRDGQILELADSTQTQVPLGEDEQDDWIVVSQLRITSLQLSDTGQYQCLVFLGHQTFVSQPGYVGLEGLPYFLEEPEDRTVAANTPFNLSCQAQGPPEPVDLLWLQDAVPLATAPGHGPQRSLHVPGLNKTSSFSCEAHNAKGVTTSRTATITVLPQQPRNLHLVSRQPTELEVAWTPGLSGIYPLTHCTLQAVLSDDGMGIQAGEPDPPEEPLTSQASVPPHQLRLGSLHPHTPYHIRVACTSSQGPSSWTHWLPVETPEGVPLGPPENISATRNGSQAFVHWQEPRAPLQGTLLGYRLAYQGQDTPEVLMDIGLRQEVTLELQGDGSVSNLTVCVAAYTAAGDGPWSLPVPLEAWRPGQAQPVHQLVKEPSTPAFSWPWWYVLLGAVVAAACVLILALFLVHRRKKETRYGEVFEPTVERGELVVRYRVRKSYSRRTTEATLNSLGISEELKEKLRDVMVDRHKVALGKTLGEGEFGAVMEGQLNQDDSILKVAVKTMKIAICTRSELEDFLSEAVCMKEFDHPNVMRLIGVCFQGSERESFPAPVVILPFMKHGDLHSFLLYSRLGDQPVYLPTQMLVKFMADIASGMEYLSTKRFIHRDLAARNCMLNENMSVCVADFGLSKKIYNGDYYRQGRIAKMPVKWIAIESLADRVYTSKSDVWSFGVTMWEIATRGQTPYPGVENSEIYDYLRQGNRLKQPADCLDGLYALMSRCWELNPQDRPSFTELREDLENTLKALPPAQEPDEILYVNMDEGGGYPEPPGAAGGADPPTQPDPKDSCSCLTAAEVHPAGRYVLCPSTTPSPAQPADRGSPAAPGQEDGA
Procedure: H1299 is a non-small cell lung cancer cell.
H1299 cells were inoculated to a 6-well plate (containing 10% FBS 1640 medium, 5×10^5 cells per well) and adherently cultivated at 37° C., and 5% CO2 for 18 hrs. The cells were starved overnight, and then compound solutions with different concentrations were added. The compounds had final concentrations of 1.1, 3.3, 10 and 30 nM. […] There was a medium containing 1‰DMSO in the negative control well. The cells were incubated at 37° C., and 5% CO2 for 60 min, and then hGAS6 (R&D, final concentration: 200 ng/mL) was added to each well. The cells were further incubated for 60 min, and then the total protein of the cells was extracted for Western Blot experiment. IC50 values were calculated with GraphPad 5.0 software, and the inhibitory activities of the compounds on cell pAxl were detected.

[2] = IV 1 mg/kg, read-out: AUClast iv (area under plasma concentration-time curve, 0-24 h)
[3] = IV 1 mg/kg, read-out: tz1/2 iv (terminal half-life) (converted)
[4] = PO 5 mg/kg, read-out: AUClast po (area under plasma concentration-time curve, 0-24 h)
[5] = PO 5 mg/kg, read-out: tz1/2 po (terminal half-life) (converted)

With `COc1cc2nccc(Oc3ccc(NC(=O)c4nn(CC5CCOCC5)cc(-c5ccc(C)cc5)c4=O)nc3)c2cc1OC` [Compound 2, N-(5-((6,7-dimethoxyquinolin-4-yl)oxy)pyridin-2-yl)-4-oxo-1-((tetrahydro-2H-pyran-4-yl)methyl)-5-(p-tolyl)-1,4-dihydropyridazin-3-carboxamide] the bioavailability ([1]; IV 1 mg/kg, PO 5 mg/kg) was 31.3%, the AUC(0-t) [1, 2] was 4070 ng·h/mL and the clearance ([1]; IV 1 mg/kg) was 4 mL/min/kg. For the same compound, the Vd ([1]; IV 1 mg/kg) was 1.19 L/kg, the half-life [1, 3] was 3.47 h and the AUC(0-t) [1, 4] was 6620 ng·h/mL. For the same compound, the Tmax ([1]; PO 5 mg/kg) was 4 h and the half-life [1, 5] was 3.14 h.
For `COc1cc2nccc(Oc3ccc(NC(=O)c4cc(-c5ccc(C)cc5)cn(CC5CCOCC5)c4=O)nc3)c2cc1OC` [Compound 13, N-(5-((6,7-dimethoxyquinolin-4-yl)oxy)pyridin 2yl)-2-oxo-1-((tetrahydro-2H-pyran-4-yl)methyl)-5-(p-tolyl)-1,2-dihydropyridin-3-carboxamide], the bioavailability ([1]; IV 1 mg/kg, PO 5 mg/kg) was 46.4%, the AUC(0-t) [1, 2] was 4220 ng·h/mL and the clearance ([1]; IV 1 mg/kg) was 3.33 mL/min/kg. It also gave a Vd ([1]; IV 1 mg/kg) of 1.65 L/kg, a half-life [1, 3] of 9.08 h and an AUC(0-t) [1, 4] of 9790 ng·h/mL. The Tmax ([1]; PO 5 mg/kg) was 4 h and the half-life [1, 5] was 8.12 h.
Compound `COc1cc2nccc(Oc3ccc(NC(=O)c4nn(C5CCOCC5)cc(-c5ccc(C)cc5)c4=O)nc3)c2cc1OC` [Compound 17, N-(5-((6,7-dimethoxyquinolin-4-yl)oxy)pyridin-2-yl)-4-oxo-1-(tetrahydro-2H-pyran-4-yl)-5-(p-tolyl)-1,4-dihydropyridazin-3-carboxamide] has a bioavailability ([1]; IV 1 mg/kg, PO 5 mg/kg) of 70.7%, an AUC(0-t) [1, 2] of 4860 ng·h/mL and a clearance ([1]; IV 1 mg/kg) of 3.5 mL/min/kg. For the same compound, the Vd ([1]; IV 1 mg/kg) was 1.18 L/kg, the half-life [1, 3] was 3.98 h and the AUC(0-t) [1, 4] was 17200 ng·h/mL. It also gave a Tmax ([1]; PO 5 mg/kg) of 6 h and a half-life [1, 5] of 3.5 h.
For `COc1cc2nccc(Oc3cnc(NC(=O)c4nn(C5CCOCC5)cc(-c5ccc(C)cc5)c4=O)nc3)c2cc1OC` [Compound 18, N-(5-((6,7-dimethoxyquinolin-4-yl)oxy)pyrimidin-2-yl)-4-oxo-1-(tetrahydro-2H-pyran-4-yl)-5-(p-tolyl)-1,4-dihydropyridazin-3-carboxamide], the bioavailability ([1]; IV 1 mg/kg, PO 5 mg/kg) was 34.6%, the AUC(0-t) [1, 2] was 1500 ng·h/mL and the clearance ([1]; IV 1 mg/kg) was 11 mL/min/kg. It also gave a Vd ([1]; IV 1 mg/kg) of 0.92 L/kg, a half-life [1, 3] of 0.96 h and an AUC(0-t) [1, 4] of 2600 ng·h/mL. The Tmax ([1]; PO 5 mg/kg) was 0.5 h and the half-life [1, 5] was 1.17 h.
With `COc1cc2nccc(Oc3ccc(NC(=O)c4cn(C5CCOCC5)cc(-c5ccc(C)cc5)c4=O)nc3)c2cc1OC` [Compound 19, N-(5-((6,7-dimethoxyquinolin-4-yl)oxy)pyridin-2-yl)-4-oxo-1-(tetrahydro-2H-pyran-4-yl)-5-(p-tolyl)-1,4-dihydropyridin-3-carboxamide] the bioavailability ([1]; IV 1 mg/kg, PO 5 mg/kg) was 40.5%, the AUC(0-t) [1, 2] was 2440 ng·h/mL and the clearance ([1]; IV 1 mg/kg) was 6.17 mL/min/kg. The Vd ([1]; IV 1 mg/kg) was 1.3 L/kg, the half-life [1, 3] was 2.44 h and the AUC(0-t) [1, 4] was 5450 ng·h/mL. For the same compound, the Tmax ([1]; PO 5 mg/kg) was 1 h and the half-life [1, 5] was 2.56 h.
Compound `COc1cc2nccc(Oc3ccc(NC(=O)c4cn(C5CCOCC5)cc(-c5ccc(F)cc5)c4=O)nc3)c2cc1OC` [Compound 27, N-(5-((6,7-dimethoxyquinolin-4-yl)oxy)pyridin-2-yl)-5-(4-fluorophenyl)-4-oxo-1-(tetrahydro-2H-pyran-4-yl)-1,4-dihydropyridin-3-carboxamide] has an IC50 (H1299 cell pAxl) of under 1.1 nM.
With `COc1cc2nccc(Oc3ccc(NC(=O)c4nn(C5CCOCC5)cc(-c5ccc(C)cc5)c4=O)cc3F)c2cc1OC` [Compound 28] the IC50 (H1299 cell pAxl) was 1.1 nM.
Compound `Cc1ccc(-c2cn(C3CCOCC3)nc(C(=O)Nc3ccc(Oc4ccnc5cc6c(cc45)OCO6)cn3)c2=O)cc1` [Compound 29, N-(5-([1,3]dioxolo[4,5-g]quinolin-8-yloxy)pyridin-2-yl)-4-oxo-1-(tetrahydro-2H-pyran-4-yl)-5-(p-tolyl)-1,4-dihydropyridazin-3-carboxamide] has an IC50 (H1299 cell pAxl) of 30 nM.
With `Cc1ccc(-c2cn(C3CCOCC3)nc(C(=O)Nc3ccc(Oc4ccnc5cc6c(cc45)OCCO6)cn3)c2=O)cc1` [Compound 30, N-(5-((2,3-dihydro-[1,4]dioxino[2,3-g]quinolin-9-yl)oxy)pyridin-2-yl)-4-oxo-1-(tetrahydro-2H-pyran-4-yl)-5-(p-tolyl)-1,4-dihydropyridazin-3-carboxamide] the IC50 (H1299 cell pAxl) was over 10 nM.
With `COc1cc2nccc(Oc3cnc(NC(=O)c4cn(C5CCOCC5)cc(-c5ccc(F)cc5)c4=O)nc3)c2cc1OC` [Compound 31, N-(5-((6,7-dimethoxyquinolin-4-yl)oxy)pyrimidin-2-yl)-5-(4-fluorophenyl)-4-oxo-1-(tetrahydro-2H-pyran-4-yl)-1,4-dihydropyridin-3-carboxamide] the IC50 (H1299 cell pAxl) was under 3.3 nM.
Compound `COc1cc2nccc(Oc3ccc(NC(=O)c4cc(CC5CCOCC5)cn(-c5ccc(F)cc5)c4=O)nc3)c2cc1OC` [Compound 32, N-(5-((6,7-dimethoxyquinolin-4-yl)oxy)pyridin-2-yl)-1-(4-fluorophenyl)-2-oxo-5-((tetrahydro-2H-pyran-4-yl)methy 1)-1,2-dihydropyridin-3-carboxamide] has an IC50 (H1299 cell pAxl) of under 1.1 nM.
`COc1cc2nccc(Oc3cnc(NC(=O)c4nn(C5CCOCC5)cc(-c5ccc(F)cc5)c4=O)nc3)c2cc1OC` [Compound 33, N-(5-((6,7-dimethoxyquinolin-4-yl)oxy)pyrimidin-2-yl)-5-(4-fluorophenyl)-4-oxo-1-(tetrahydro-2H-pyran-4-yl)-1,4-dihydropyridazin-3-carboxamide] gave an IC50 (H1299 cell pAxl) of 3.3 nM.
`COc1cc2nccc(Oc3ccc(NC(=O)c4nn(C5CCOCC5)cc(-c5ccc(F)cc5)c4=O)nc3)c2cc1OC` [Compound 34, N-(5-((6,7-dimethoxyquinolin-4-yl)oxy)pyridin-2-yl)-5-(4-fluorophenyl)-4-oxo-1-(tetrahydro-2H-pyran-4-yl)-1,4-dihydropyridazin-3-carboxamide] gave an IC50 (H1299 cell pAxl) of under 1.1 nM, a bioavailability ([1]; IV 1 mg/kg, PO 5 mg/kg) of 65.7% and an AUC(0-t) [1, 2] of 8440 ng·h/mL. The clearance ([1]; IV 1 mg/kg) was 1.83 mL/min/kg, the Vd ([1]; IV 1 mg/kg) was 0.84 L/kg and the half-life [1, 3] was 5.18 h. The AUC(0-t) [1, 4] was 28000 ng·h/mL, the Tmax ([1]; PO 5 mg/kg) was 6 h and the half-life [1, 5] was 4.56 h.
